Results reported in patent US5776433A, “Flunisolide aerosol formulations” (Minnesota Mining and Manufacturing Company, priority 1995, dated 1998).

Assay type: physicochemical
From the text: This intermediate level of solubility can lead to particle size increase of the drug in a suspension formulation. It is well known that particles having a diameter of greater than about 10 μm are not suitable for inhalation to the lung. Therefore particle size increase can threaten the utility of a pharmaceutical aerosol formulation.

solubility in 1:1 blend of HFA 134a and HFA 227: about 0.007 % by weight
solubility in HFA 134a: about 0.006 % by weight
solubility in HFA 227: about 0.004 % by weight
SMILES: CC1(C)O[C@@H]2C[C@H]3[C@@H]4C[C@H](F)C5=CC(=O)C=C[C@]5(C)[C@H]4[C@@H](O)C[C@]3(C)[C@]2(C(=O)CO)O1 [flunisolide hemihydrate, 6α-fluoro-11β, 16α, 17,21-tetrahydroxypregna-1,4-diene-3,20-dione cyclic 16,17-acetal with acetone]
